Test results: patent publication US4900673A, “Mutant human angiogenin (angiogenesis factor with superior angiogenin activity) genes therefor and methods of expression” (President and Fellows of Harvard College, priority 1988, dated 1990)

Assays:
[1] = target: T1, bovine RNase A (Bos taurus, UniProt P61823); details: measured under conditions employed here (Harper et al., Biochemistry 27: 219-226); cited from earlier work
T1 sequence (P61823 27-150): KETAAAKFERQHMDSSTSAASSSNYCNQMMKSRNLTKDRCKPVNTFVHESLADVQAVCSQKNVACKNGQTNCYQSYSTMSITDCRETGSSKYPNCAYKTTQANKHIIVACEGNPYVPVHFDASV

[2] = target: T2, human angiogenin variant D116N-angiogenin (Asn-116) (Homo sapiens, UniProt P03950, D140N); experiment: Cleavage of dinucleoside phosphates (HPLC method); type: biochemical; details: 30 mM Mes, pH 6.0, 30 mM NaCl, 0.1 mM dinucleoside phosphate, 37° C.
T2 construct: made in house; host or cells: E. coli W3110
T2 sequence (P03950 25-147 D140N): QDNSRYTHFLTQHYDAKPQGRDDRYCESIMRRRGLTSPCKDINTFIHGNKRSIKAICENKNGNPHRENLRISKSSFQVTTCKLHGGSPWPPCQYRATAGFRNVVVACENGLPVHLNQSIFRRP
Method: Activity toward the RNase substrates cytidyl (3'→5') adenosine (CpA) and uridyl (3'→5') adenosine (UpA) was determined using a sensitive HPLC method described previously (Shapiro et al., Biochemistry 25: 3527-3532 and 7255-7264 1986). Reaction mixture containing 30 mM 2-(N-morpholino) ethane sulfonic acid (Mes), pH 6.0, 30 mM NaCl and 0.1 mM dinucleoside phosphate were incubated with angiogenin (0.7-3.0 μM) at 37° C. Aliquots (15-20 μl) were removed at various times and injected onto an HPLC column (radial Pak C18; Waters Associates) equilibrated with 10 mM potassium phosphate, pH 7.0. Elution of reactants and products was accomplished using a linear gradient of methanol in 100 mM potassium phosphate pH 7.0 at a flow rate of 0.8 ml/minutes. Elution was monitored at 254 nm and the integrated areas of reactants and products used to calculate kcat /Km using the expression kcat /Km =1n {[S] o /[S]t }/[E]t.

Row | Structure (SMILES) | kcat /Km [1] [M⁻¹ s⁻¹] | kcat /Km [2] [M^-1 s^-l]
1 | Nc1ccn([C@@H]2O[C@H](CO)[C@@H](OP(=O)(O)OC[C@H]3O[C@@H](n4cnc5c(N)ncnc54)[C@H](O)[C@@H]3O)[C@H]2O)c(=O)n1 [CpA, cytidyl (3'→5') adenosine] | 6e+06 | 
2 | Nc1ncnc2c1ncn2[C@@H]1O[C@H](COP(=O)(O)O[C@H]2[C@@H](O)[C@H](n3ccc(=O)[nH]c3=O)O[C@@H]2CO)[C@@H](O)[C@H]1O [UpA, uridyl (3'→5') adenosine] | 4e+06 | 0.5
